Measurements taken from patent publication US10392390B2, “5-HT2C receptor agonists and compositions and methods of use” (Arena Pharmaceuticals, Inc., priority 2015, dated 2019).

Key:
[1] = biological target: T1, 5-HT2C receptor (Homo sapiens, UniProt P28335); assay: IP accumulation assay in HEK293 cells expressing recombinant 5-HT2 receptors; type: cell-based; settings: 2 h at 37° C.
T1 construct: expressed in transfected cells; host or cells: HEK293
T1 sequence (P28335 33-458): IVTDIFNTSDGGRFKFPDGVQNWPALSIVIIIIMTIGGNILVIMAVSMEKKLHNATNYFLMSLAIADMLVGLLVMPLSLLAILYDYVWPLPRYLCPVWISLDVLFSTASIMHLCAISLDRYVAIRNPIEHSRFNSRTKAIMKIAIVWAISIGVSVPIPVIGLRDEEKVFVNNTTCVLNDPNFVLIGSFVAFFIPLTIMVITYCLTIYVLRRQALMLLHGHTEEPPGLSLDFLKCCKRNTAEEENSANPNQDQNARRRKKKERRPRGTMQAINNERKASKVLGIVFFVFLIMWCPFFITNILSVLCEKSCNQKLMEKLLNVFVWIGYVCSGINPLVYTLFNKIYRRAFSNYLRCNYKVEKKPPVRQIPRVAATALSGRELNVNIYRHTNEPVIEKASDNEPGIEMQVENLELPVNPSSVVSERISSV
Description: (§1) HEK293 cells expressing recombinant 5-HT2 receptors were added to sterile poly-D-lysine-coated 96-well microtiter plates (35,000 cells/well) and labeled with 0.6 μCi/well of [^3H]inositol in myoinositol-free DMEM for 18 h. Unincorporated [^3H]inositol was removed by aspiration and replaced with fresh myoinositol-free DMEM supplemented with LiCl (10 mM final) and pargyline (10 μM final). Serially diluted test compounds were then added and incubation was conducted for 2 h at 37° C. Incubations were then terminated by lysing cells with the addition of ice-cold 0.1 M formic acid followed by freezing at −80° C. After thawing, total [^3H]inositol phosphates were resolved from [^3H]inositol using AG1-X8 ion exchange resin (Bio-Rad) and [^3H]inositol phosphates were measured by scintillation counting using a Perkin Elmer TopCount® scintillation counter. All EC50 determinations were performed using 10 different concentrations and triplicate determinations were made at each test concentration.

[2] = biological target: T2, 5-HT2B receptor (Homo sapiens, UniProt P41595); assay: Radioligand binding assay, [125I]DOI competition; settings: HEK293 cell membranes, read-out: DOI Binding Ki 2B
T2 construct: expressed in transfected cells; host or cells: HEK293
Description: (§2) HEK293 cells stably expressing recombinant 5-HT2 receptors were harvested, suspended in ice-cold phosphate buffered saline, pH 7.4 (PBS), and then centrifuged at 48,000 g for 20 min at 4° C. The resulting cell pellet was then re-suspended in wash buffer containing 20 mM HEPES, pH 7.4 and 0.1 mM EDTA, homogenized on ice using a Brinkman Polytron, and centrifuged (48,000 g for 20 min at 4° C.). The pellet was then resuspended in 20 mM HEPES, pH 7.4, homogenized on ice, and centrifuged (48,000 g for 20 min at 4° C.). Crude membrane pellets were stored at −80° C. until used for radioligand binding assays.
(§3) Experiments comprised addition of 95 μL, of assay buffer (20 mM HEPES, pH 7.4, 10 mM MgCl2), 50 μL, of membranes, 50 μL, of radioligand stock, and 5 μL of test compound diluted in assay buffer to 96-well microtiter plates, which were then incubated for 1 h at room temperature. Assay incubations were terminated by rapid filtration through PerkinElmer F/C filtration plates under reduced pressure using a 96-well Packard filtration apparatus, followed by washing three times with ice cold assay buffer. Plates were then dried at 45° C. for a minimum of 2 h. Finally, 25 μL of BetaScint™ scintillation cocktail was added to each well and the plates were counted in a Packard TopCount® scintillation counter. […]

[3] = biological target: T3, 5-HT2A receptor (Homo sapiens, UniProt P28223); assay: Radioligand binding assay, [125I]DOI competition; settings: HEK293 cell membranes, read-out: DOI Binding Ki 2A
T3 construct: expressed in transfected cells; host or cells: HEK293
Description: as §2, §3

[4] = biological target: T1, 5-HT2C receptor; assay: Radioligand binding assay, [125I]DOI competition; settings: HEK293 cell membranes, read-out: DOI Binding Ki 2C
Description: as §2
Radioligand binding assays were performed using the commercially available 5-HT2 receptor agonist [^125I]DOI as the radioligand and nonspecific binding was determined in the presence of unlabeled DOI at a saturating concentration of 10 μM. Competition experiments utilized 5-HT2 receptor expressing HEK293 cell membranes obtained as described in Example 3 (15-25 μg membrane protein/well) and radioligand at final assay concentrations of 0.4 to 0.6 nM. […] Finally, 25 μL of BetaScint™ scintillation cocktail was added to each well and the plates were counted in a Packard TopCount® scintillation counter. […]

[5] = biological target: T3, 5-HT2A receptor; assay: IP accumulation assay in HEK293 cells expressing recombinant 5-HT2 receptors; type: cell-based; settings: 2 h at 37° C.
Description: as §1

[6] = reports that led to withdrawal in 1998; cited from earlier work
[7] = a patient with Lennox-Gastaut syndrome; cited from earlier work
[8] = one study, patients without diabetes; cited from earlier work
[9] = cited from earlier work
[10] = cited from earlier work; remark: listed apart in the source
[11] = pivotal phase 3 program, up to two years
[12] = top quartile of patients, second phase 3 trial

T3 sequence (P28223 whole entry): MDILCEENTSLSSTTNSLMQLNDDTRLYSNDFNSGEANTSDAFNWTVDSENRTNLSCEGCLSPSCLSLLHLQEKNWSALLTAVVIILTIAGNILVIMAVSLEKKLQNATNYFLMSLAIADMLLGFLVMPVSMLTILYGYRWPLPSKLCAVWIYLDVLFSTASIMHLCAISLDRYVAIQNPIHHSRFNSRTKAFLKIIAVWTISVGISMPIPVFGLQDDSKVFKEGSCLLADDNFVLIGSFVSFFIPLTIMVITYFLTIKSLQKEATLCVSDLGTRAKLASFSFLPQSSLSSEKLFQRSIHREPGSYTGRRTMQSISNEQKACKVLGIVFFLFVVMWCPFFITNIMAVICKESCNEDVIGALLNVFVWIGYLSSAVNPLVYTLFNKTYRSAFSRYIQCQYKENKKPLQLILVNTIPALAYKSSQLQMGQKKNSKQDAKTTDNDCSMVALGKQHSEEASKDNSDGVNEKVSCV
T2 sequence (P41595 whole entry): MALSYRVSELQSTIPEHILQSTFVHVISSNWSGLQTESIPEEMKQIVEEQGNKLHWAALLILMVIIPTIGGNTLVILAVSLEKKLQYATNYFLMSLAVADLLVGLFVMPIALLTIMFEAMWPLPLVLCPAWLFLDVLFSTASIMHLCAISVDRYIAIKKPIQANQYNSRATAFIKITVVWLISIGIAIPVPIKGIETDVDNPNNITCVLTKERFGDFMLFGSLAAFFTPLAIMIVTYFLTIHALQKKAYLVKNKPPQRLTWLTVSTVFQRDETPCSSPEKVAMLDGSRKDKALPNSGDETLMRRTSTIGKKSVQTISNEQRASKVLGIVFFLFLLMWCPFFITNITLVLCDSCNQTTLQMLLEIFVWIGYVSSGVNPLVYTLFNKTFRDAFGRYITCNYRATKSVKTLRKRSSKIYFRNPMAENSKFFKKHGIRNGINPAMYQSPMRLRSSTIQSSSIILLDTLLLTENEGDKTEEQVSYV

Compound: CCC1CN2CCNCc3ccc(C(=O)NCC(F)F)c1c32 (single isomer, unassigned) [1st eluting enantiomer in example 1.5, N-(2,2-difluoroethyl)-7-ethyl-1,2,3,4,6,7-hexahydro-[1,4]diazepino[6,7,1-hi]indole-8-carboxamide]
- EC50 [1]: 15200 nM

Compound: CCC1CN2CCNCc3ccc(C(=O)NCC(F)F)c1c32 (single isomer, unassigned) [2nd eluting enantiomer in example 1.5, N-(2,2-difluoroethyl)-7-ethyl-1,2,3,4,6,7-hexahydro-[1,4]diazepino[6,7,1-hi]indole-8-carboxamide]
- Ki [2]: 92300 nM
- EC50 [1]: 7.09 nM
- Ki [3]: 6580 nM
- Ki [4]: 19.7 nM

Compound: CC1(C)CN2CCNCc3ccc(C(=O)NCC(F)F)c1c32 [Compound 6, N-(2,2-difluoroethyl)-7,7-dimethyl-1,2,3,4,6,7-hexahydro-[1,4]diazepino[6,7,1-hi]indole-8-carboxamide]
- EC50 [1]: 195 nM

Compound: O=C(NCC(F)F)c1ccc2c3c1C1(CCC1)CN3CCNC2 [Compound 7, N-(2,2-difluoroethyl)-2,3,4,6-tetrahydro-1H-spiro[[1,4]diazepino[6,7,1-hi]indole-7,1′-cyclobutane]-8-carboxamide]
- Ki [2]: 6810 nM
- EC50 [1]: 17.7 nM
- EC50 [5]: 160 nM
- Ki [3]: 6750 nM
- Ki [4]: 36.6 nM

Compound: CCN[C@@H](C)Cc1cccc(C(F)(F)F)c1 [d-fenfluramine]
- patients with reported cardiac valve defects [6]: up to one third

Compound: CCNC(C)Cc1cccc(C(F)(F)F)c1 (stereo not drawn) [fenfluramine]
- reduction in seizure frequency during treatment [7]: two-thirds

Compound: C[C@H]1CNCCc2ccc(Cl)cc21 [lorcaserin, (R)-8-chloro-1-methyl-2,3,4,5-tetrahydro-1H-3-benzazepine]
- insulin resistance (HOMA-IR) change [8]: −0.4
- reduction in HbA1c ([9]; 10 mg BID, type 2 diabetes): 0.9%
- decrease of mean daily doses of sulfonylureas and thiazolidinediones ([9]; patients with type 2 diabetes): 16-24%
- excess body weight lost ([10]; first phase 3 trial, based on a normal BMI of 25): about one-third
- patients who achieved at least 5% weight loss [10, 11]: About two-thirds
- patients who achieved at least 10% weight loss [10, 11]: over one-third
- average weight loss [10, 12]: 35 pounds
- average weight loss, of body weight [10, 12]: 16%
